Laboratory results as given in patent US20080242688A1, “Method 741” (ASTRAZENECA AB, priority 2007, published 2008).
“And” between values parts separate entries of the source, which are not always exact repeats. Identical values can stand only once.

Legend:
[1] = Intestinal transit (charcoal meal, glass bead); conditions: in vivo; rat, oral; read-out: NOAEL on intestinal motility
Description: Effects of AZD0328 on small intestinal and colorectal motility were investigated in rats using the charcoal meal test and the glass bead test, respectively (Table 3). In the first part, evaluating intestinal transit, a test meal containing charcoal as a non-absorbable marker was administered to rats. In the second part, effects of oral administration of AZD0328 on colorectal transit time was evaluated.

[2] = target: human recombinant α7 receptor (Homo sapiens, UniProt P36544); assay: [3H]-AZ11637326 binding, α7-HEK; parameters: expressed in transfected cells
[3] = Allometric scaling / predicted human pharmacokinetics
Pgp transporter = target: T1, Pgp transporter (Homo sapiens, UniProt P08183); assay: Digoxin transport, cell-based assay; format: in vitro ADME
T1 construct: host or cells: unnamed cells
From the text: The 50% bioavailability of AZD0328 in human was conservatively selected based on the observations from rat, dog and monkey.

Multiple dose PK/TK, dog = format: in vivo; parameters: AUC/dose: unit not given beside the values
From the text: This section provides a summary of the pharmacokinetic and metabolism properties of AZD0328 derived from in vivo studies. […] The derived PK/TK parameters from these studies are presented in Table 4 for single dose studies (DMR4, 0619LR, 20030191PCR, DMO16, DMB10, DMW12, 50190, 0190DD and 03.330/1), and are presented in Table 5 multiple dose PK/TK studies (DMR4, 0612AR, DMB15, 50190, 0190DD and 0295AD).

[4] = allometric scaling of in vivo data from rat and monkey
[5] = both sexes, dog, in vivo, po, 34.6 mg/kg, dog 2F+2M, 0190DD, 34.6 mg/kg (160 μmol/kg) split in two 6 h apart, capsules fasted, day 1
[6] = both sexes, dog, in vivo, po, 34.6 mg/kg, dog 2F+2M, 0190DD, 34.6 mg/kg (160 μmol/kg) split in two 6 h apart, capsules fasted, day 7
[7] = both sexes, dog, in vivo, po, 34.6 mg/kg, dog 2F+2M, 0190DD, 34.6 mg/kg (160 μmol/kg) split in two 6 h apart, solution fasted, day 1
[8] = both sexes, dog, in vivo, po, 34.6 mg/kg, dog 2F+2M, 0190DD, 34.6 mg/kg (160 μmol/kg) split in two 6 h apart, solution fasted, day 7
[9] = both sexes, dog, in vivo, po, 138 mg/kg, dog 2F+2M, 0190DD, 138 mg/kg (640 μmol/kg) split in two 6 h apart, capsules fed, day 1
[10] = both sexes, dog, in vivo, po, 138 mg/kg, dog 2F+2M, 0190DD, 138 mg/kg (640 μmol/kg) split in two 6 h apart, capsules fed, day 7
[11] = female, Beagle, dog, in vivo, po, 8.65 mg/kg, dog 3F, 0295AD, 8.65 mg/kg (40 μmol/kg) split in two 6 h apart, capsules fed, day 7
[12] = female, Beagle, dog, in vivo, po, 8.65 mg/kg, dog 3F, 0295AD, 8.65 mg/kg (40 μmol/kg) split in two 6 h apart, capsules fed, day 35
[13] = female, Beagle, dog, in vivo, po, 17.3 mg/kg, dog 3F, 0295AD, 17.3 mg/kg (80 μmol/kg) split in two 6 h apart, capsules fed, day 7
[14] = female, Beagle, dog, in vivo, po, 17.3 mg/kg, dog 3F, 0295AD, 17.3 mg/kg (80 μmol/kg) split in two 6 h apart, capsules fed, day 35

T1 sequence (P08183 whole entry): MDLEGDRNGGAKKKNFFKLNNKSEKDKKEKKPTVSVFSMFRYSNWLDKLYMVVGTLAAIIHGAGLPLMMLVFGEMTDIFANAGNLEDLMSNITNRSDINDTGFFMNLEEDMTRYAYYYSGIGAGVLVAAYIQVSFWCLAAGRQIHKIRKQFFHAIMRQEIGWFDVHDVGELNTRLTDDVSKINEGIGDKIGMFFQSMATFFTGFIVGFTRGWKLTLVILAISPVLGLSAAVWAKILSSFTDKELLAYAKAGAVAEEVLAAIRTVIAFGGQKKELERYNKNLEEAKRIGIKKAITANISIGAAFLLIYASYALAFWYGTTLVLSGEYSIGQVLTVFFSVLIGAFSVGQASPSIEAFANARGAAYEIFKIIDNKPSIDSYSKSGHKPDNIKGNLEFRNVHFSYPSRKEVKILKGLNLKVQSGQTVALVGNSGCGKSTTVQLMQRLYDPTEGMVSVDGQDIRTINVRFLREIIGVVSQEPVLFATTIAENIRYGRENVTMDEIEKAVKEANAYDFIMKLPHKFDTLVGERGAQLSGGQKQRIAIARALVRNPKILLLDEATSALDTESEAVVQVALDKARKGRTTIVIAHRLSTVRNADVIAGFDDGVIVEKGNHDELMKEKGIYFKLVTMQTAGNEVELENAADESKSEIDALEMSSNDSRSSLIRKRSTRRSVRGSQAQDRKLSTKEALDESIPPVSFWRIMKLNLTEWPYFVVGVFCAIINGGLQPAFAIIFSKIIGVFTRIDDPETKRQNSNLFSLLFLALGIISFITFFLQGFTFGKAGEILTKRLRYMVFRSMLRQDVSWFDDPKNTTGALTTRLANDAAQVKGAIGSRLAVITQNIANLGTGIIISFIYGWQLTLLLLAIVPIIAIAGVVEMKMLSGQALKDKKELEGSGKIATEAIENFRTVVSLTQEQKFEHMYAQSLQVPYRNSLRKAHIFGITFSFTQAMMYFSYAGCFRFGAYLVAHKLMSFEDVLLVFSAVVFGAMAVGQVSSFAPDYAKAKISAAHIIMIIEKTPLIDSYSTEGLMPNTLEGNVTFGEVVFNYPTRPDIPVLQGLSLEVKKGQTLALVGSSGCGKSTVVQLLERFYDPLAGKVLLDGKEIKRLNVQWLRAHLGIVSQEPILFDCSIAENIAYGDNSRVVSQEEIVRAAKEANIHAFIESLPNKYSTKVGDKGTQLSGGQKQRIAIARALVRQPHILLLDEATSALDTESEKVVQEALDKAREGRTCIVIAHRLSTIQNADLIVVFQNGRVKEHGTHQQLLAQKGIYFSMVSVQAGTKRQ
Sequence of human recombinant α7 receptor (P36544 23-502): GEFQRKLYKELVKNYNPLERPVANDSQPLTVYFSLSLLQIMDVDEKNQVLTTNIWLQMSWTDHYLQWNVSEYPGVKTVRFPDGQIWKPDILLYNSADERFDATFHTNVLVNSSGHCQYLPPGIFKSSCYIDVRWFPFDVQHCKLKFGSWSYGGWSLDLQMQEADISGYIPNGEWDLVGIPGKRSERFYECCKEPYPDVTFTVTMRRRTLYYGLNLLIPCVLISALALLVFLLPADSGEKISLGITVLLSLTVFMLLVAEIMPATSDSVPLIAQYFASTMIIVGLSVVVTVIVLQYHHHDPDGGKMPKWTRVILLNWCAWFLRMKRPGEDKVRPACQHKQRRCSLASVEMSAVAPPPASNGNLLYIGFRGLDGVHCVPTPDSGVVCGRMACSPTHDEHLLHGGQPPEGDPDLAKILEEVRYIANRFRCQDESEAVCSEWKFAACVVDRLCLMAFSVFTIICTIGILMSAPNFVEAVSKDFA

Q: What does the source list for `c1cnc2c(c1)C[C@@]1(CN3CCC1CC3)O2` [AZD0328, (R)-Spiro[1-azabicyclo[2.2.2]octane-3,2′(3′H)-furo[2,3-b]pyridine]]?
A: NOAEL [1]: 5.6 mg/kg; Ki [2]: 6.4 nM; predicted human Vdss [3, 4]: 2.7 L/kg; predicted human systemic clearance [3, 4]: 5.9 mL/min/kg; human predicted half-life ([3]; one-compartment pharmacokinetic model): 5.3 h; inhibition of Pgp mediated digoxin transport (Pgp transporter): did not significantly inhibit; decrease of digoxin transport (Pgp transporter; 10.8 μg/mL (50 μM)): 11%; AUC (Multiple dose PK/TK, dog; [5]): 4430 ng·h/mL and 20.5 µM·h; Cmax (Multiple dose PK/TK, dog; [5]): 694 ng/mL and 3.21 µM; Tmax (Multiple dose PK/TK, dog; [5]): 1 to 3 h; AUC (Multiple dose PK/TK, dog; [6]): 6970 ng·h/mL and 32.2 µM·h; Cmax (Multiple dose PK/TK, dog; [6]): 2120 ng/mL and 9.79 µM; Tmax (Multiple dose PK/TK, dog; [6]): 1 h; AUC (Multiple dose PK/TK, dog; [7]): 4890 ng·h/mL and 22.6 µM·h; Cmax (Multiple dose PK/TK, dog; [7]): 1130 ng/mL and 5.2 µM; Tmax (Multiple dose PK/TK, dog; [7]): 0.5 h; AUC (Multiple dose PK/TK, dog; [8]): 7200 ng·h/mL and 33.3 µM·h; Cmax (Multiple dose PK/TK, dog; [8]): 1560 ng/mL and 7.22 µM; Tmax (Multiple dose PK/TK, dog; [8]): 0.5 to 1 h; AUC (Multiple dose PK/TK, dog; [9]): 11900 ng·h/mL and 55 µM·h; Cmax (Multiple dose PK/TK, dog; [9]): 1520 ng/mL and 7.04 µM; Tmax (Multiple dose PK/TK, dog; [9]): 1 to 6 h; AUC (Multiple dose PK/TK, dog; [10]): 7160 ng·h/mL and 33.1 µM·h; Cmax (Multiple dose PK/TK, dog; [10]): 1360 ng/mL and 6.27 µM; Tmax (Multiple dose PK/TK, dog; [10]): 0.5 to 6 h; AUC/dose (Multiple dose PK/TK, dog; dog 2F+2M, 0190DD, 34.6 mg/kg (160 μmol/kg) split in two 6 h apart, capsules fasted, day 1): 0.128 ± 0.087; AUC/dose (Multiple dose PK/TK, dog; dog 2F+2M, 0190DD, 34.6 mg/kg (160 μmol/kg) split in two 6 h apart, solution fasted, day 1): 0.141 ± 0.014; AUC/dose (Multiple dose PK/TK, dog; dog 2F+2M, 0190DD, 34.6 mg/kg (160 μmol/kg) split in two 6 h apart, solution fasted, day 7): 0.208 ± 0.088; AUC/dose (Multiple dose PK/TK, dog; dog 2F+2M, 0190DD, 138 mg/kg (640 μmol/kg) split in two 6 h apart, capsules fed, day 1): 0.0859 ± 0.0530; AUC/dose (Multiple dose PK/TK, dog; dog 2F+2M, 0190DD, 138 mg/kg (640 μmol/kg) split in two 6 h apart, capsules fed, day 7): 0.0517 ± 0.0206; AUC/dose (Multiple dose PK/TK, dog; dog 3F, 0295AD, 8.65 mg/kg (40 μmol/kg) split in two 6 h apart, capsules fed, day 7): 0.113 ± 0.038; AUC/dose (Multiple dose PK/TK, dog; dog 3F, 0295AD, 8.65 mg/kg (40 μmol/kg) split in two 6 h apart, capsules fed, day 35): 0.107 ± 0.017; AUC/dose (Multiple dose PK/TK, dog; dog 3F, 0295AD, 17.3 mg/kg (80 μmol/kg) split in two 6 h apart, capsules fed, day 7): 0.246 ± 0.092; AUC/dose (Multiple dose PK/TK, dog; dog 3F, 0295AD, 17.3 mg/kg (80 μmol/kg) split in two 6 h apart, capsules fed, day 35): 0.233 ± 0.049; AUC/dose (Multiple dose PK/TK, dog; dog 3M, 0295AD, 8.65 mg/kg (40 μmol/kg) split in two 6 h apart, capsules fed, day 7): 0.100 ± 0.051; AUC/dose (Multiple dose PK/TK, dog; dog 3M, 0295AD, 8.65 mg/kg (40 μmol/kg) split in two 6 h apart, capsules fed, day 35): 0.145 ± 0.039; AUC/dose (Multiple dose PK/TK, dog; dog 3M, 0295AD, 17.3 mg/kg (80 μmol/kg) split in two 6 h apart, capsules fed, day 7): 0.223 ± 0.047; AUC/dose (Multiple dose PK/TK, dog; dog 3M, 0295AD, 17.3 mg/kg (80 μmol/kg) split in two 6 h apart, capsules fed, day 35): 0.196 ± 0.008; AUC/dose (Multiple dose PK/TK, dog; dog 6F, 0295AD, 26.0 mg/kg (120 μmol/kg) split into 17.3 and 8.7 mg/kg 6 h apart, capsules fed, day 35): 0.133 ± 0.036; AUC/dose (Multiple dose PK/TK, dog; dog 6M, 0295AD, 26.0 mg/kg (120 μmol/kg) split into 17.3 and 8.7 mg/kg 6 h apart, capsules fed, day 35): 0.174 ± 0.029; AUC/dose (Multiple dose PK/TK, dog; dog 6M, 0295AD, 34.6 mg/kg (160 μmol/kg) split in two 6 h apart, capsules fed, day 7): 0.152 ± 0.075; AUC (Multiple dose PK/TK, dog; [11]): 981 ng·h/mL and 4.53 µM·h; Cmax (Multiple dose PK/TK, dog; [11]): 302 ng/mL and 1.39 µM; Tmax (Multiple dose PK/TK, dog; [11]): 1 to 7 h; AUC (Multiple dose PK/TK, dog; [12]): 924 ng·h/mL and 4.27 µM·h; Cmax (Multiple dose PK/TK, dog; [12]): 270 ng/mL and 1.25 µM; Tmax (Multiple dose PK/TK, dog; [12]): 1 to 9 h; AUC at 7 day (Multiple dose PK/TK, dog; [13]): 2130 ng·h/mL and 9.83 µM·h; Cmax at 7 day (Multiple dose PK/TK, dog; [13]): 850 ng/mL and 3.93 µM; Tmax at 7 day (Multiple dose PK/TK, dog; [13]): 0.5 to 6.5 h; AUC at 35 day (Multiple dose PK/TK, dog; [14]): 2020 ng·h/mL and 9.33 µM·h; Cmax at 35 day (Multiple dose PK/TK, dog; [14]): 439 ng/mL and 2.03 µM
